Common to all, as to test: NCI tumour cell line growth inhibition, 48 h
In assay [1] the test system is MDA-MB-231 breast.
The test system of assay [2] is SF-268 CNS.
The subject of assay [3] is RPMI-8226 leukemia.
Assay [4] concerns HCT-116 colon.
Assay [5] has as its system DU-145 prostate.
Assay [6] has as its system SW-620 colon.
In assay [7] the test system is MOLT-4 leukemia.
For assay [8], the system named is MDA-MB-435.
Assay [9] concerns SR leukemia.
Assay [10] concerns CCRF-CEM leukemia.
For assay [11], the system named is SK-MEL-5 melanoma.
Assay [12] has as its system MCF7 breast.
In assay [13] the test system is OVCAR-3 ovarian.
The subject of assay [14] is SNB-19 CNS.
Assay [15] relates to OVCAR-5 ovarian.
The subject of assay [16] is RXF 393 renal.
Assay [17] deals with OVCAR-4 ovarian.
Assay [18] has as its system NCI-H522 lung.
For assay [19], the system named is MALME-3M melanoma.

Values joined by “and” are separate entries in the source; they are usually repeats but may differ in a detail not shown here. Equal values may be shown once.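 Tested at 5 concentrations; 48 h exposure; 96-well plates; endpoints linearly interpolated, else capped at highest concentration. GI50 is the concentration that inhibits growth by half. TGI: concentration producing complete growth inhibition.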

Drawing on PubChem BioAssay (NCI), this text covers TGI and GI50 for 16 compounds.

In the case of `CC(C)Nc1n[nH]c(=O)n1C(C)C`, the TGI in [1], in assay [2], in assay [3], in [4], in assay [5] and in assay [6] was above 100 µM in each case. The TGI in assay [7], in assay [8], in assay [9], in [10], in assay [11] and in [12] was above 100 µM each time. The TGI in assay [13], in [14] and in assay [15] was above 100 µM throughout.

For `CC1(C)C2CCC1(C)C(NC(=O)CCN1CCOCC1)C2` (stereo unspecified), the TGI in assay [1], in assay [2], in assay [16], in assay [4], in assay [5] and in assay [6] was above 100 µM throughout. Besides, the TGI in assay [7], in assay [17], in [18], in assay [8], in assay [9] and in assay [10] was above 100 µM each time. In addition, the TGI in [11], in [12], in assay [13], in [14], in [19] and in assay [15] was above 100 µM in each case.

Take `c1csc(-c2cc(-c3ccsc3)c(-c3cccs3)s2)c1`: the TGI in [1], in assay [2], in assay [16], in assay [4], in assay [5] and in [6] was above 100 µM each time. Besides, the TGI in [7], in assay [17], in [18], in assay [8], in [9] and in assay [10] was above 100 µM throughout. In addition, the TGI is above 100 µM in [11]; 89.8 µM in assay [12]; above 100 µM in assay [13]; above 100 µM in assay [14]; above 100 µM in assay [19]; above 100 µM in assay [15].

Turning to `O=C(CN1CCOCC1)NC1=Nc2ncccc2C(=O)NN1`, the TGI in [1], in assay [2], in [3], in [16], in [4] and in assay [5] was above 10 µM in each case. Also, the TGI in assay [6], in [7], in [8], in assay [9], in [10] and in assay [11] was above 10 µM in each case. For the same compound, the TGI in [12], in assay [13], in assay [14], in assay [19] and in assay [15] was above 10 µM each time.

Turning to `COc1ccc(-n2c(C)nc3ccc(N=Cc4ccccc4)cc3c2=O)cc1`, the TGI in assay [1], in assay [2], in assay [3], in [16], in [4] and in assay [5] was above 100 µM throughout. Also, the TGI in assay [6], in assay [7], in assay [17], in assay [18], in assay [8] and in assay [9] was above 100 µM each time. For the same compound, the TGI in assay [11], in [12], in assay [13], in [14], in [19] and in assay [15] was above 100 µM throughout.

Turning to `CCCCCCCCCCCCCCCCCCNc1ccn(C2OC(COP(=O)(O)OCCCCCCCCCCCCCCCC)C(O)C2O)c(=O)n1` (stereo unspecified), the TGI in assay [1], in assay [2], in [3], in assay [16], in [4] and in assay [5] was above 100 µM in each case. Moreover, the TGI in assay [6], in [7], in [17], in [18], in assay [8] and in [9] was above 100 µM throughout. The TGI in assay [10], in assay [12], in assay [13], in assay [14] and in assay [15] was above 100 µM each time.

Consider `CN(C)c1ncc(-c2c[nH]c3ccccc23)nc1-c1c[nH]c2ccccc12`, for which the TGI in [1] is 4.62 µM; in [2] it was 25 µM; in [3], above 100 µM; in assay [16] it was 4.11 µM; in [4], 12 µM; in assay [5], 20.9 µM. Moreover, the TGI in [6] was 11.8 µM; in [7], 27.5 µM; in assay [17] it was 17.8 µM; in assay [8], 12.1 µM; in assay [9] it was 10.8 µM; in assay [11], 15.9 µM. The TGI was found to be 12.9 µM in assay [12], 18.6 µM in assay [13], 14.8 µM in [14] and 16.9 µM in assay [15].

Take `COc1cc(C(CN)N(C)C)cc(OC)c1OC` (stereo unspecified): the TGI in assay [1], in assay [2], in [16], in assay [4], in [5] and in assay [6] was above 100 µM in each case. Also, the TGI in [7], in assay [17], in [18], in assay [8], in [9] and in assay [10] was above 100 µM each time. The TGI in [11], in assay [12], in [13], in assay [14], in assay [19] and in assay [15] was above 100 µM in each case.

On to `CNC(=O)OC(C)CN1c2ccccc2Sc2ccccc21` (stereo unspecified), for which the TGI in assay [1], in [2], in assay [16], in [4], in assay [5] and in assay [6] was above 100 µM in each case. Also, the TGI in [7], in assay [17], in assay [18], in [8], in assay [9] and in assay [10] was above 100 µM each time. The TGI in assay [11], in assay [12], in [13], in [14], in [19] and in assay [15] was above 100 µM each time.

Regarding `COC(=O)C1=C(C(=O)OC)C2(/N=C(\Nc3ccccc3)c3ccccc3)N(c3ccc(OC)cc3)CC(c3ccccc3)N2O1` (stereo unspecified), the TGI in assay [1], in assay [2], in assay [16], in [4], in [5] and in assay [6] was above 100 µM throughout. Besides, the TGI in assay [7], in assay [17], in assay [18], in assay [8], in assay [9] and in assay [10] was above 100 µM throughout. The TGI in assay [11], in assay [12], in assay [13], in assay [14], in assay [19] and in assay [15] was above 100 µM in each case.

With `O=C(C1=CCC2(CC1)OCCO2)N(Cc1ccccc1)c1ccccc1I`, the TGI in [1] was determined as 68.1 µM; in [2], 27.9 µM; in assay [3], 97.6 µM; in assay [16] it was 77.6 µM; in assay [4], 37.7 µM; in assay [5], 63.6 µM. Also, the TGI is above 100 µM in assay [6]; above 100 µM in [7]; 34.4 µM in [17]; 50.7 µM in assay [8]; above 100 µM in assay [9]; 30.1 µM in [11]. Besides, the TGI was found to be 72.4 µM in [12], 38.6 µM in assay [13], 37.3 µM in [14] and 36.7 µM in assay [15].

As for `CCOC(=O)c1c2ccccc2n2c(=O)n(C)nnc12`, the TGI in [1] is above 100 µM; in assay [2] it was above 100 µM; in assay [3], above 100 µM; in assay [16], 99.1 µM; in assay [4], above 100 µM; in assay [5], above 100 µM. Further, the TGI in [6] is above 100 µM; in assay [17], above 100 µM; in assay [8] it was above 100 µM; in assay [9] it was above 90.7 µM; in assay [10], above 100 µM; in [11], above 100 µM. Further, the TGI in [12], in assay [13], in [14], in assay [19] and in [15] was above 100 µM in each case.

For `N#C/C(=C\N1CCNC1=S)C(=O)c1ccc2ccccc2c1`, the TGI in assay [1], in [2], in assay [3], in assay [16], in assay [4] and in assay [5] was above 100 µM each time. Further, the TGI in [6], in [7], in [17], in [18], in assay [8] and in assay [9] was above 100 µM throughout. The TGI in [11], in [12], in assay [13], in [14] and in [15] was above 100 µM throughout.

`COC(=O)C1=C(O)C(C(=O)OC)[C@@]2(O)[C@@H](C(=O)OC)C(c3ccc(OC(=O)/C(=C/c4ccccc4)c4ccccc4)cc3)C[C@@H]1[C@@H]2C(=O)OC` (stereo partly specified): the TGI in [1] was above 100 µM; in assay [2], above 100 µM; in assay [16], 63.1 µM; in assay [4] it was above 100 µM; in assay [5], above 100 µM; in assay [6], above 100 µM. Besides, the TGI in [7], in [17], in assay [18], in assay [8], in assay [9] and in [10] was above 100 µM each time. Moreover, the TGI in [11], in assay [12], in assay [13], in assay [14], in assay [19] and in [15] was above 100 µM in each case.

Turning to `Cc1nnc2nc(-c3ccc(Cl)cc3Cl)cc(-c3ccc(Cl)cc3)n12`, the TGI in [1], in [2], in assay [3], in assay [4], in assay [5] and in assay [6] was above 100 µM in each case. In addition, the TGI in [7] is 96 µM; in assay [17], 39.6 µM; in assay [8], above 100 µM; in assay [9], above 100 µM; in assay [10], above 100 µM; in assay [11], above 100 µM. The TGI in assay [12], in assay [13], in [14], in assay [19] and in assay [15] was above 100 µM in each case.

Turning to `CC(=O)OCC1OC(Sc2nc(-c3ccc(C)cc3)c(C#N)c(=O)n2C2OC(COC(C)=O)C(OC(C)=O)C(OC(C)=O)C2OC(C)=O)C(OC(C)=O)C(OC(C)=O)C1OC(C)=O` (stereo unspecified), the TGI in assay [1], in [2], in assay [3], in [16], in [4] and in assay [5] was above 100 µM throughout. The TGI in [6], in assay [7], in assay [18], in assay [8], in assay [9] and in assay [10] was above 100 µM throughout. Moreover, the TGI in assay [11], in [12], in [13], in [14] and in [15] was above 100 µM each time. The GI50 in [8] was > 100 µM and 34.7 µM.
